Assays:
[1] = system: HeLa (cervical carcinoma); assay: cell proliferation, Coulter counter, HeLa; assay type: cell-based; conditions: Homo sapiens, 72 h, 3 days, cells counted in a Coulter counter
Method: (§1) The experiments were carried out on several human cell lines, as follows: HCT116 (colon carcinoma), H 460 (lung carcinoma) and MCF-7 (breast carcinoma), HeLa (cervical carcinoma), human T-lymphocyte cells (CEM) and HMEC-1 (dermal microvascular endothelial cell) according to the previously published experimental procedure. Briefly, the cells were grown in DMEM medium with the addition of 10% foetal bovine serum (FBS), 2 mM L-glutamine, 100 U/mL penicillin and 100 µg/mL streptomycin, and cultured as monolayers at 37 °C in a humidified atmosphere with 5% CO2. HCT116, H 460 and MCF-7 cells were seeded at 2 × 10^3 cells/well in a standard 96-well microtiter plates and left to attach for 24 h. Next day, test compound was added in five serial 10-fold dilutions. The cell growth rate was evaluated after 72 h of incubation, using MTT assay. Obtained results were expressed as IC50 value which stands for the concentration of the compound necessary for 50% of growth inhibition. The IC50 values were calculated from concentration-response curve using linear regression analysis by fitting the test concentrations that give percentage of growth (PG) values above and below the reference value (i.e., 50%). However, if for a given cell line all of the tested concentrations produce PGs exceeding the respective reference level of effect (e.g., PG value of 50), then the highest tested concentration is assigned as the default value, which is preceded by a “>” sign. Each test was performed in quadruplicate in at least two individual experiments.
(§2) HeLa and HMEC-1 cells were seeded in 48-well plates at 10,000 cells/well. After 24 h, different concentrations of the compounds were added. After 3 days of incubation, the cells were trypsinized and counted in a Coulter counter. Suspension cells (human T-cell leukaemia Cem cells) were seeded in 96-well plates at 60,000 cells/well in the presence of different concentrations of compounds, allowed to proliferate for 96 h, and counted in a Coulter counter. The 50% inhibitory concentration (IC50) was defined as the compound concentration required reducing cell proliferation by 50%.

MCF-7 (breast carcinoma) = assay: in vitro antiproliferative activity, MTT assay, MCF-7; assay type: cell-based, human; conditions: for IC50: Homo sapiens, MCF7, concentration that causes 50% growth inhibition, 72 h, MTT assay
Method: as §1

HCT116 (colon carcinoma) = assay: in vitro antiproliferative activity, MTT assay, HCT116; assay type: cell-based; conditions: Homo sapiens, HCT-116, concentration that causes 50% growth inhibition, 72 h
Method: as §1

[2] = system: HMEC-1 (dermal microvascular endothelial cell); assay: cell proliferation, Coulter counter, HMEC-1 (non-tumour); assay type: cell-based; conditions: Homo sapiens, HMEC-1, 72 h; non-tumour cell line; 3 days, cells counted in a Coulter counter
Method: as §1, §2

H 460 (lung carcinoma) = assay: in vitro antiproliferative activity, MTT assay, H 460; assay type: cell-based; conditions: Homo sapiens, NCI-H460, concentration that causes 50% growth inhibition, 72 h
Method: as §1

[3] = system: human T-lymphocyte cells (CEM); assay: cell proliferation, Coulter counter, CEM; assay type: cell-based; conditions: 96 h, cells counted in a Coulter counter
Method: as §1, §2

Structure (SMILES)	IC50 [1] [µM]	melting point [°C]	IC50 (MCF-7 (breast carcinoma)) [µM]	IC50 (HCT116 (colon carcinoma)) [µM]	IC50 [2] [µM]	IC50 (H 460 (lung carcinoma)) [µM]	IC50 [3] [µM]	activity against MCF-7 cell line (in words) (MCF-7 (breast carcinoma))
Cc1cc(=O)oc2cc(-n3cc(-c4ccc(-c5cn(-c6ccc7c(C)cc(=O)oc7c6)nn5)cc4)nn3)ccc12 [Compound 2i, 7,7′-(4,4′-(1,4-Phenylene)bis(1H-1,2,3-triazole-4,1-diyl))bis(4-methyl-2H-chromen-2-one)]	≥ 100	255 to 261	1 ± 0.1	7 ± 3	> 100	≥ 100	> 100	
Cc1cc(=O)oc2cc(-n3cc(-c4ccc(N)cc4)nn3)ccc12 [Compound 2b, 7-[4-(4-Aminophenyl)-1H-1,2,3-triazol-1-yl]-4-methyl-2H-chromene-2-one]	> 100	269 to 273	0.6 ± 0.1	3 ± 2	> 100	≥ 100	> 100	
Cc1cc(=O)oc2cc(-n3cc(-c4ccc(Br)cc4)nn3)ccc12 [Compound 2e, 7-[4-(4-Bromophenyl)-1H-1,2,3-triazol-1-yl]-4-methyl-2H-chromen-2-one]		280 to 285	32 ± 4	27 ± 0.06		85 ± 13.5		
Cc1cc(=O)oc2cc(-n3cc(-c4ccccc4)nn3)ccc12 [Compound 2a, 4-Methyl-7-(4-phenyl-1H-1,2,3-triazol-1-yl)-2H-chromen-2-one]	> 100	267 to 270	23 ± 9	≥ 100	> 100	≥ 100	> 100	
O=c1[nH]cc(F)c(=O)[nH]1 [Compound 5-FU, 5-fluorouracil, reference compound]			14 ± 0.3	4 ± 1		3 ± 0.3		
Cc1ccc(-c2cn(-c3ccc4c(C)cc(=O)oc4c3)nn2)cc1 [Compound 2d, 4-Methyl-7-[4-(p-tolyl)-1H-1,2,3-triazol-1-yl]-2H-chromen-2-one]		269 to 272	≥ 100	36 ± 3		≥ 100		devoid of activity
COc1cc([C@@H]2c3cc4c(cc3[C@@H](O[C@@H]3O[C@@H]5CO[C@@H](C)O[C@H]5[C@H](O)[C@H]3O)[C@H]3COC(=O)[C@H]23)OCO4)cc(OC)c1O [etoposide, reference compound]			1 ± 0.7	5 ± 2		0.1 ± 0.04		
Cc1cc(=O)oc2cc(-n3cc(CSc4nc5ccccc5[nH]4)nn3)ccc12 [Compound 4b, 7-{4-{[(1H-Benzo[d]imidazol-2-yl)thio]methyl}-1H-1,2,3-triazol-1-yl}-4-methyl-2H-chromen-2-one]	25	237 to 244	19 ± 3	31 ± 5	69 ± 8	23 ± 10	74 ± 37	
COc1ccc(-c2cn(-c3ccc4c(C)cc(=O)oc4c3)nn2)cc1 [Compound 2f, 7-[4-(4-Methoxyphenyl)-1H-1,2,3-triazol-1-yl]-4-methyl-2H-chromen-2-one]		266 to 270	≥ 100	22 ± 21		≥ 100		devoid of activity
Cc1cc(=O)oc2cc(-n3cc(-c4ccc(N(C)C)cc4)nn3)ccc12 [Compound 2c, 7-[4-(4-(Dimethylamino)phenyl]-1H-1,2,3-triazol-1-yl)-4-methyl-2H-chromen-2-one]	88 ± 8	275 to 279	21 ± 0.03	≥ 100	> 100	≥ 100	58 ± 7	
Cc1cc(=O)oc2cc(-n3cc(-c4ccc(C=O)cc4)nn3)ccc12 [Compound 2g, 4-[1-(4-Methyl-2-oxo-2H-chromen-7-yl]-1H-1,2,3-triazol-4-yl)benzaldehyde]		282 to 287	≥ 100	77 ± 7		≥ 100		devoid of activity
Cc1cc(=O)oc2cc(-n3cc(CSc4nc5ccccc5s4)nn3)ccc12 [Compound 4a, 7-{{4-[(Benzo[d]thiazol-2-yl)thio]methyl}-1H-1,2,3-triazol-1-yl}-4-methyl-2H-chromen-2-one]	79 ± 36	186 to 192	3 ± 2	31 ± 6	66 ± 4	21 ± 7	≥ 100	
Cc1cc(=O)oc2cc(-n3cc(-c4cccc(-c5cn(-c6ccc7c(C)cc(=O)oc7c6)nn5)c4)nn3)ccc12 [Compound 2h, 7,7′-(4,4′-(1,3-Phenylene)bis(1H-1,2,3-triazole-4,1-diyl))bis(4-methyl-2H-chromen-2-one)]	> 100		0.3 ± 0.2	9 ± 3	> 100	29 ± 3	> 100	

Source: publication PMC8840664, “Design, Synthesis, Spectroscopic Characterisation and In Vitro Cytostatic Evaluation of Novel Bis(coumarin-1,2,3-triazolyl)benzenes and Hybrid Coumarin-1,2,3-triazolyl-aryl Derivatives” (Molecules, 2022)
